Results published in ChEMBL document CHEMBL2407030, “Novel nicotinic acetylcholine receptor agonists containing carbonyl moiety as a hydrogen bond acceptor” (Bioorg Med Chem Lett, 2013).
The source made the active and inactive calls. The calls are words filed in the database; no cut-off is given here.

Columns and labels:
[1] = molecular target: T1, Neuronal acetylcholine receptor; alpha4/beta2 (Homo sapiens, UniProt P17787+P43681); assay: Displacement of [3H]Nicotine from alpha4beta2 nACHR in human SHEP1 cell membranes after 2 hrs by liquid scintillation counting analysis
[2] = molecular target: T2, Neuronal acetylcholine receptor; alpha3/beta4 (Homo sapiens, UniProt P30926+P32297); assay: Agonist activity at human alpha3beta4 nACHR expressed in CHO cell membranes assessed as stimulation of calcium flux by FLIPR assay; type: cell-based
[3] = molecular target: Neuronal acetylcholine receptor subunit alpha-7 (Homo sapiens, UniProt P36544); assay: Displacement of [3H]Epibatidine from human alpha7 nACHR expressed in CHO cell membranes after 2 hrs by liquid scintillation counting analysis
[4] = molecular target: T1, Neuronal acetylcholine receptor; alpha4/beta2; assay: Agonist activity at alpha4beta2 nACHR in human SHEP1 cell membranes assessed as stimulation of calcium flux by FLIPR assay relative to control; type: cell-based
[5] = molecular target: T2, Neuronal acetylcholine receptor; alpha3/beta4; assay: Agonist activity at human alpha3beta4 nACHR expressed in CHO cell membranes assessed as stimulation of calcium flux by FLIPR assay relative to control; type: cell-based
[6] = molecular target: T2, Neuronal acetylcholine receptor; alpha3/beta4; assay: Displacement of [3H]Epibatidine from human alpha3beta4 nACHR expressed in CHO cell membranes after 2 hrs by liquid scintillation counting analysis
[7] = molecular target: T1, Neuronal acetylcholine receptor; alpha4/beta2; assay: Agonist activity at alpha4beta2 nACHR in human SHEP1 cell membranes assessed as stimulation of calcium flux by FLIPR assay; type: cell-based
[8] = test system: Rattus norvegicus; assay: Cognitive enhancing effect in rat at 0.003 mg/kg, po by novel object recognition test; type: functional, organism-based; design: dose 0.003 mg/kg
[9] = test system: Rattus norvegicus; assay: Cognitive enhancing effect in rat at 0.1 to 3 mg/kg, po by novel object recognition test; type: functional, organism-based

T2 sequence (P30926 whole entry): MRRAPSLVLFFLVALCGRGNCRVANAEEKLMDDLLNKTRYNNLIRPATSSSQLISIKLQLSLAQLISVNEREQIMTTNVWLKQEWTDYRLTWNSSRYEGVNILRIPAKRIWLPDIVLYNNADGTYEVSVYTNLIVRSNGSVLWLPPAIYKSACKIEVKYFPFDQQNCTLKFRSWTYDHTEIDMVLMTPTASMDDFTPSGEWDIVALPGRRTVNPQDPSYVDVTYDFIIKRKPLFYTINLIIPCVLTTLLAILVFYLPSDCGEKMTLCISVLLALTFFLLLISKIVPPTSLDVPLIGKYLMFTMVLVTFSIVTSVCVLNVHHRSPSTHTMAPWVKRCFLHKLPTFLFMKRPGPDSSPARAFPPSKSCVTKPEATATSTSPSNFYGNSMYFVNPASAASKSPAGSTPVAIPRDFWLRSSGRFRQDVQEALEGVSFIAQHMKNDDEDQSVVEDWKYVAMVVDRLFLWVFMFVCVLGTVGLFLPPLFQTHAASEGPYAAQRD
T2 sequence (P32297 whole entry): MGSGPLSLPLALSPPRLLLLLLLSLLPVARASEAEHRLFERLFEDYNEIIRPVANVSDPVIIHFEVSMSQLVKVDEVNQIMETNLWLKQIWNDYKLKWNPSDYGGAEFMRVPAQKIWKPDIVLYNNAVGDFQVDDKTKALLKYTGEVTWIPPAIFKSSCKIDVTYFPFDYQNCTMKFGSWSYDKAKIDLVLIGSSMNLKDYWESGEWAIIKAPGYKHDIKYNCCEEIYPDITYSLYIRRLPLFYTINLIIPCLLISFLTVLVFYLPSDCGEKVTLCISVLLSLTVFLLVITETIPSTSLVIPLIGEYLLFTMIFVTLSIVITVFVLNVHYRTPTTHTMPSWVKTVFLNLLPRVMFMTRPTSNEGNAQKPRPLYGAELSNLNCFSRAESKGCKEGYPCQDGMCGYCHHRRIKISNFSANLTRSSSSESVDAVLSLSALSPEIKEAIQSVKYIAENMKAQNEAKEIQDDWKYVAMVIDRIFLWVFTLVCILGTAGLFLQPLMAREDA
T1 sequence (P17787 whole entry): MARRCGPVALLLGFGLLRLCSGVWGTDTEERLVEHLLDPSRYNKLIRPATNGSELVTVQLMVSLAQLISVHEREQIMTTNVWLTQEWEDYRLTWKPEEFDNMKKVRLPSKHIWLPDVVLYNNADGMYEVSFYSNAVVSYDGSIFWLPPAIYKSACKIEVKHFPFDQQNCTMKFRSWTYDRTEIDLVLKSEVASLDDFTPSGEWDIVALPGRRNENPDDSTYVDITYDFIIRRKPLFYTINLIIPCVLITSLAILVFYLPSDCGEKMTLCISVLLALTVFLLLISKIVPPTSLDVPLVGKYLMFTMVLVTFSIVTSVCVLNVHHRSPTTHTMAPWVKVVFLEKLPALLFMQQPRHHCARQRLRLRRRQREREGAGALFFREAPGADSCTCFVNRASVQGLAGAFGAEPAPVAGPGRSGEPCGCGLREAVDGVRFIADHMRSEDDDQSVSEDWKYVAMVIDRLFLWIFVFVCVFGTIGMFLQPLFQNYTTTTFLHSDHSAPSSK
T1 sequence (P43681 whole entry): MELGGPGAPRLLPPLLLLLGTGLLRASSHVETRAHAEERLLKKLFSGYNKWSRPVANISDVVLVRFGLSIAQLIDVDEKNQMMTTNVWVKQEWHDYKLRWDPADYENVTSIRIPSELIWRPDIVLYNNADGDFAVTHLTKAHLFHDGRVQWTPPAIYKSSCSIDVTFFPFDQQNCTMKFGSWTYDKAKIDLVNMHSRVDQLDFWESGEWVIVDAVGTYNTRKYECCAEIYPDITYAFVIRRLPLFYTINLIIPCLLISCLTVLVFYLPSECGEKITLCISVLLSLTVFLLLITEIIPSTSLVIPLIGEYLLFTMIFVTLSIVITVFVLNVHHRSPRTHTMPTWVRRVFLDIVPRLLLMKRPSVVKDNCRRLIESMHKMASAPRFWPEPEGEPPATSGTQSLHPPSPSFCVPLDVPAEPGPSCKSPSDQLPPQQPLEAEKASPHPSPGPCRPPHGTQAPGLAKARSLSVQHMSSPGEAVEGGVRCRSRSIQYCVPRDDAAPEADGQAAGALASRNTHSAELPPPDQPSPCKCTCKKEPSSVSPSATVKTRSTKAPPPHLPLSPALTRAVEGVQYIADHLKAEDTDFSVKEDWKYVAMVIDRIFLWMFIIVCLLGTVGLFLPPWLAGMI
Chain of Neuronal acetylcholine receptor subunit alpha-7 (P36544 whole entry): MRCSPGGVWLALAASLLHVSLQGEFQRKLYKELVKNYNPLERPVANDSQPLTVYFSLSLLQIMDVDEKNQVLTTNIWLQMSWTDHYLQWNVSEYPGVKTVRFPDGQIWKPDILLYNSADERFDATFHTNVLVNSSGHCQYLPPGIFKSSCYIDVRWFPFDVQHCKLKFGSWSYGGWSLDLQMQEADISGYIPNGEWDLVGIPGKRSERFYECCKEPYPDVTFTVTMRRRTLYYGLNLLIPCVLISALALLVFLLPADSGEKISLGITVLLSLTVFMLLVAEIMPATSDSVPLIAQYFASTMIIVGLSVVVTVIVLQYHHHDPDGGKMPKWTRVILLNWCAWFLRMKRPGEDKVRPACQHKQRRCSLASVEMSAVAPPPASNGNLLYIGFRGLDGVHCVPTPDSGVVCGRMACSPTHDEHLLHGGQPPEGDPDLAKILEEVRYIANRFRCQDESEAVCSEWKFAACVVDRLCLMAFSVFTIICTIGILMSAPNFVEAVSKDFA

Compound `CC(C)NC(=O)[C@H]1C[C@@H]2CNC[C@@H](C2)C1` has a Ki [1] of 23 nM, an EC50 [2] of 27000 nM and a Ki [3] of 11000 nM. For the same compound, the Emax [4] was 64%, the Emax [5] was 25% and the Ki [6] was 6000 nM. For the same compound, the EC50 [7] was 1900 nM.
Work on `O=C(C1CC1)[C@H]1C[C@@H]2CNC[C@@H](C2)C1` yielded a Ki [1] of 43 nM, an EC50 [2] of 1300 nM and an Emax [4] of 22%. It also gave an Emax [5] of 10%, a Ki [6] of 4100 nM and an EC50 [7] of 7100 nM.
In the case of `O=C(c1ccco1)[C@H]1C[C@@H]2CNC[C@@H](C2)C1`, the Ki [1] is reported as 110 nM and the Ki [3] is reported as 15000 nM.
`CNC(=O)[C@H]1C[C@@H]2CNC[C@@H](C2)C1` showed a Ki [1] of 1.9 nM, an EC50 [2] of 100000 nM and an Emax [4] of 65%. It also gave an Emax [5] of 5% and an EC50 [7] of 2000 nM.
In the case of `CCCNC(=O)[C@H]1C[C@@H]2CNC[C@@H](C2)C1`, the Ki [1] is reported as 6 nM, the EC50 [2] is reported as 15000 nM and the Ki [3] is reported as 10000 nM. The Emax [4] was 54%, the Emax [5] was 24% and the Ki [6] was 4000 nM. It also gave an EC50 [7] of 2400 nM.
In the case of `CN1CCC[C@H]1c1cccnc1`, the Emax [4] is reported as 100% and the Emax [5] is reported as 100%.
With `COC(=O)C1CC2CNCC(C2)C1` (mixture of isomers) the Ki [1] was 2400 nM.
Work on `O=C([C@@H]1C[C@@H]1F)N1CC2CNCC2C1` (mixture of isomers) yielded a Ki [1] of 17 nM, an EC50 [2] of 13000 nM and a Ki [3] of 6900 nM. The Emax [4] was 120%, the Emax [5] was 88% and the Ki [6] was 860 nM. For the same compound, the EC50 [7] was 930 nM.
With `O=C([C@H]1C[C@H]1F)N1CC2CNCC2C1` (mixture of isomers) the Ki [1] was 5 nM, the EC50 [2] was 24000 nM and the Ki [3] was 1400 nM. For the same compound, the Emax [4] was 130%, the Emax [5] was 140% and the Ki [6] was 380 nM. The EC50 [7] was 1000 nM.
`O=C([C@H]1C[C@@H]1F)N1CC2CNCC2C1` (mixture of isomers) showed a Ki [1] of 30 nM, an EC50 [2] of 14000 nM and a Ki [3] of 2700 nM. For the same compound, the Emax [4] was 140%, the Emax [5] was 90% and the Ki [6] was 810 nM. The EC50 [7] was 900 nM.
With `O=C([C@@H]1C[C@H]1F)N1CC2CNCC2C1` (mixture of isomers) the Ki [1] was 9 nM, the EC50 [2] was 8400 nM and the Ki [3] was 990 nM. For the same compound, the Emax [4] was 130%, the Emax [5] was 150% and the Ki [6] was 420 nM. It also gave an EC50 [7] of 190 nM.
With `C[C@H]1C[C@H]1C(=O)N1CC2CNCC2C1` (mixture of isomers) the Ki [1] was 18 nM, the EC50 [2] was 10000 nM and the Ki [3] was 4500 nM. The Emax [4] was 100%, the Emax [5] was 110% and the Ki [6] was 2000 nM. For the same compound, the EC50 [7] was 19000 nM.
`C[C@@H]1C[C@@H]1C(=O)N1CC2CNCC2C1` (mixture of isomers) gave a Ki [1] of 1 nM, an EC50 [2] of 1400 nM and a Ki [3] of 350 nM. For the same compound, the Emax [4] was 140%, the Emax [5] was 180% and the Ki [6] was 280 nM. The EC50 [7] was 1200 nM.
`C[C@@H]1C[C@H]1C(=O)N1CC2CNCC2C1` (mixture of isomers) was tested, and the Ki [1] was 4 nM, the EC50 [2] was 14000 nM and the Ki [3] was 1900 nM. For the same compound, the Emax [4] was 100%, the Emax [5] was 110% and the Ki [6] was 360 nM. It also gave an EC50 [7] of 1700 nM.
In the case of `C[C@H]1C[C@@H]1C(=O)N1CC2CNCC2C1` (mixture of isomers), the Ki [1] is reported as 43 nM, the EC50 [2] is reported as 34000 nM and the Ki [3] is reported as 100000 nM. It also gave an Emax [4] of 68%, an Emax [5] of 26% and a Ki [6] of 13000 nM. It also gave an EC50 [7] of 5600 nM.
For `O=C([C@@H]1C[C@@H]1F)N1CC2CNCC(C2)C1` (mixture of isomers), the Ki [1] was 5.2 nM, the EC50 [2] was 11000 nM and the Ki [3] was 300 nM. It also gave an Emax [4] of 11%, an Emax [5] of 90% and a Ki [6] of 1200 nM. It also gave an EC50 [7] of 400 nM.
Compound `O=C([C@H]1C[C@H]1F)N1CC2CNCC(C2)C1` (mixture of isomers) has a Ki [1] of 1.4 nM, an EC50 [2] of 2100 nM and a Ki [3] of 100 nM. The Emax [4] was 7%, the Emax [5] was 130% and the Ki [6] was 150 nM. It also gave an EC50 [7] of 9200 nM.
`O=C([C@@H]1C[C@H]1F)N1CC2CNCC(C2)C1` (mixture of isomers) showed a Ki [1] of 1 nM, an EC50 [2] of 390 nM and a Ki [3] of 10 nM. It also gave an Emax [4] of 77%, an Emax [5] of 130% and a Ki [6] of 36 nM. For the same compound, the EC50 [7] was 430 nM.
`O=C([C@H]1C[C@@H]1F)N1CC2CNCC(C2)C1` (mixture of isomers) gave a Ki [1] of 7.3 nM, an EC50 [2] of 8000 nM and a Ki [3] of 400 nM. For the same compound, the Emax [4] was 84%, the Emax [5] was 210% and the Ki [6] was 320 nM. For the same compound, the EC50 [7] was 2700 nM.
`C[C@@H]1C[C@H]1C(=O)N1CC2CNCC(C2)C1` (mixture of isomers) showed a Ki [1] of 1 nM, an EC50 [2] of 1600 nM and a Ki [3] of 30 nM. The Emax [4] was 23%, the Emax [5] was 120% and the Ki [6] was 100 nM. It also gave an EC50 [7] of 12000 nM.
`C[C@H]1C[C@@H]1C(=O)N1CC2CNCC(C2)C1` (mixture of isomers) gave a Ki [1] of 28 nM, an EC50 [2] of 8300 nM and a Ki [3] of 300 nM. The Emax [4] was 21%, the Emax [5] was 89% and the Ki [6] was 600 nM. The EC50 [7] was 10000 nM.
In the case of `C[C@@H]1C[C@@H]1C(=O)N1CC2CNCC(C2)C1` (mixture of isomers), the Ki [1] is reported as 0.2 nM, the EC50 [2] is reported as 80 nM and the Ki [3] is reported as 5 nM. The Emax [4] was 5%, the Emax [5] was 160% and the Ki [6] was 10 nM. For the same compound, the EC50 [7] was 1900 nM.
For `C[C@H]1C[C@H]1C(=O)N1CC2CNCC(C2)C1` (mixture of isomers), the Ki [1] was 2.9 nM, the EC50 [2] was 300 nM and the Ki [3] was 100 nM. The Emax [4] was 0.5%, the Emax [5] was 140% and the Ki [6] was 100 nM. For the same compound, the EC50 [7] was 100000 nM.
`CC(=O)N1CC2CNCC2C1` (mixture of isomers) gave a Ki [1] of 38 nM, an EC50 [2] of 23000 nM and an Emax [4] of 110%. It also gave an Emax [5] of 36%, a Ki [6] of 14000 nM and an EC50 [7] of 2600 nM.
In the case of `CCC(=O)N1CC2CNCC2C1` (mixture of isomers), the Activity [8] is reported as “Active”, the Ki [1] is reported as 12 nM and the EC50 [2] is reported as 18000 nM. It also gave a Ki [3] of 4000 nM, an Emax [4] of 120% and an Emax [5] of 130%. For the same compound, the Ki [6] was 2100 nM, the Activity [9] was “Active” and the EC50 [7] was 1300 nM.
Compound `CC(=O)N1CC2CNCC(C2)C1` (mixture of isomers) has an EC50 [2] of 13000 nM, a Ki [3] of 3300 nM and an Emax [4] of 34%. It also gave an Emax [5] of 110%, a Ki [6] of 5500 nM and an EC50 [7] of 9900 nM.
With `CCC(=O)N1CC2CNCC(C2)C1` (mixture of isomers) the Ki [1] was 8 nM, the EC50 [2] was 5900 nM and the Ki [3] was 1600 nM. For the same compound, the Emax [4] was 83%, the Emax [5] was 130% and the Ki [6] was 20000 nM. For the same compound, the EC50 [7] was 1900 nM.
`COC(=O)N1CC2CNCC(C2)C1` (mixture of isomers) gave a Ki [1] of 20 nM, an Emax [4] of 65% and an EC50 [7] of 5200 nM.
Work on `COC(=O)N1CC2CNCC2C1` (mixture of isomers) yielded a Ki [1] of 23 nM, an EC50 [2] of 16000 nM and an Emax [5] of 85%. For the same compound, the Ki [6] was 14000 nM.
`CNC(=O)[C@H]1C[C@H]2CNC[C@H]2C1` (mixture of isomers) showed a Ki [1] of 180 nM and a Ki [3] of 27000 nM.
`O=C(C1CC1)[C@H]1C[C@H]2CNC[C@H]2C1` (mixture of isomers) was tested, and the Ki [1] was 0.5 nM, the EC50 [2] was 930 nM and the Ki [3] was 140 nM. For the same compound, the Emax [4] was 120%, the Emax [5] was 130% and the Ki [6] was 70 nM. For the same compound, the EC50 [7] was 18 nM.
`O=C(c1ccco1)[C@H]1C[C@H]2CNC[C@H]2C1` (mixture of isomers) gave a Ki [1] of 13 nM, an EC50 [2] of 11000 nM and a Ki [3] of 3400 nM. It also gave an Emax [4] of 94%, an Emax [5] of 40% and a Ki [6] of 2200 nM. For the same compound, the EC50 [7] was 1600 nM.
Work on `COC(=O)[C@H]1C[C@H]2CNC[C@H]2C1` (mixture of isomers) yielded a Ki [1] of 8 nM, an EC50 [2] of 14000 nM and a Ki [3] of 13000 nM. For the same compound, the Emax [4] was 130%, the Emax [5] was 100% and the Ki [6] was 400 nM. The EC50 [7] was 1200 nM.
